For this assay, the target named is EchA19 (Mycobacterium tuberculosis, UniProt O53561).
EchA19, sequence (O53561 whole entry): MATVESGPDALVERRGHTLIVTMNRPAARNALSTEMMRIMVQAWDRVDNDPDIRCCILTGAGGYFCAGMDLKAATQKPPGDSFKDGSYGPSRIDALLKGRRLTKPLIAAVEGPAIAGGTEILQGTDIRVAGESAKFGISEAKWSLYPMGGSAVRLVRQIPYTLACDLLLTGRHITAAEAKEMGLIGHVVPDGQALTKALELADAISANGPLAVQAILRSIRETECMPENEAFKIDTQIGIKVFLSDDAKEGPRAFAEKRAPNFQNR

Take `C[C@H](/C=C/C(=O)SCCNC(=O)CCNC(=O)[C@H](O)C(C)(C)COP(=O)(O)OP(=O)(O)OC[C@H]1O[C@@H](n2cnc3c(N)ncnc32)[C@H](O)[C@@H]1OP(=O)(O)O)[C@H]1CC[C@H]2[C@@H]3CCC4=CC(=O)CC[C@]4(C)[C@H]3CC[C@]12C` [3-OCDO-CoA]: the “hydration product identified by MALDI MS and 1H NMR” value was “both EchA19 and ChsH3 performed the hydration reaction on 3-OCDO-CoA”.

For the origin of these results see paper PMC8204306 (ACS Infectious Diseases, 2021).
